PubChem BioAssay (NCI)
Several values for one entry are separate records, joined by “and”; a condition that tells them apart may be missing. Identical values can stand only once.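 The compound was tested at five concentrations on cells cultured in 96-well plates, with a 48-hour exposure period. GI50: concentration for 50% inhibition of growth. At the TGI there is no net growth.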

Tests used:
Assay in all cases: NCI anticancer screen, dose series, 48 h
OVCAR-5 ovarian = test system: OVCAR-5 ovarian
A498 renal = test system: A498 renal
NCI-H23 lung = test system: NCI-H23 lung
SNB-75 CNS = test system: SNB-75 CNS
SF-539 CNS = test system: SF-539 CNS
786-0 renal = test system: 786-0 renal
HCT-116 colon = test system: HCT-116 colon
OVCAR-3 ovarian = test system: OVCAR-3 ovarian
SK-MEL-2 melanoma = test system: SK-MEL-2 melanoma
MDA-MB-435 = test system: MDA-MB-435

| Structure (SMILES) | TGI (OVCAR-5 ovarian) [µM] | TGI (A498 renal) [µM] | TGI (NCI-H23 lung) [µM] | TGI (SNB-75 CNS) [µM] | TGI (SF-539 CNS) [µM] | TGI (786-0 renal) [µM] | TGI (HCT-116 colon) [µM] | TGI (OVCAR-3 ovarian) [µM] | TGI (SK-MEL-2 melanoma) [µM] | GI50 (OVCAR-5 ovarian) [µM] | GI50 (A498 renal) [µM] | GI50 (NCI-H23 lung) [µM] | GI50 (SNB-75 CNS) | GI50 (SF-539 CNS) [µM] | GI50 (MDA-MB-435) [µM] | TGI (MDA-MB-435) [µM] | GI50 (786-0 renal) [µM] | GI50 (HCT-116 colon) [µM] | GI50 (OVCAR-3 ovarian) [µM] | GI50 (SK-MEL-2 melanoma) [µM] |
| --- | --- | --- | --- | --- | --- | --- | --- | --- | --- | --- | --- | --- | --- | --- | --- | --- | --- | --- | --- | --- |
| O=C1CC2CCN(C(=O)c3ccccc3)CC2CCN1 (stereo not given) | > 100 | > 100 | > 100 | > 100 | > 100 | > 100 | > 100 | > 100 | 60.2 |  |  |  |  |  |  |  |  |  |  |  |
| CCOC(=O)C1=C(Nc2ccc(Br)cc2)OCC1=O |  | > 100 | > 100 | > 100 | > 100 | > 100 | > 100 | > 100 | > 100 |  |  |  |  |  |  |  |  |  |  |  |
| COc1ccc(-c2ccc(NNC(=O)c3ccc(F)cc3)nn2)cc1OC | > 100 | > 100 | > 100 | > 100 | > 100 | > 100 | > 100 | > 100 |  | > 100 | > 100 | > 100 | 26.9 µM | > 100 | > 100 | > 100 | > 100 | > 100 | 79.7 |  |
| COc1cc2c(cc1OC)C1Cc3cc(OC)c(OC)cc3N1CC2 (stereo not given) | > 100 | > 100 | > 100 | 56.2 |  | 37.9 | > 100 | > 100 | > 100 |  |  |  |  |  |  |  |  |  |  |  |
| C=CCC1(C)CCCCC1(O)CS(=O)c1ccccc1 (stereo not given) | > 100 | > 100 |  | > 100 | > 100 | > 100 | > 100 | > 100 |  |  |  |  |  |  |  |  |  |  |  |  |
| C=C1C(O)C2C(=C(C)C13CC3)C(=O)C(C)(C)C2OC (stereo not given) | > 100 |  | > 100 | > 100 | > 100 | > 100 | > 100 | > 100 | > 100 | > 100 |  | > 100 | > 100 µM | > 100 | > 100 | > 100 | > 100 | > 100 | > 100 | > 100 |
| Cc1ccc(C)c(N2C(=O)C(=O)C(c3nc4ccccc4o3)/C(=N/N)C2=O)c1 (stereo not given) |  | > 100 | > 100 | > 100 | > 100 | > 100 | > 100 | > 100 | > 100 |  |  |  |  |  |  |  |  |  |  |  |
| COc1cc(-c2nnc3n2NC=C(C(=O)O)S3)cc(OC)c1OC | > 100 | > 100 | > 100 | > 100 | > 61.4 | > 76.3 | > 68.8 | > 100 | > 100 |  |  |  |  |  |  |  |  |  |  |  |
| O=C1C2[C@@H](C(=O)N1c1ccc(Br)cc1)C13C(=CC2([N+](=O)[O-])[C@@H]2C(=O)N(c4ccc(Br)cc4)C(=O)[C@@H]21)c1ccccc1N3c1ccccc1 (stereo not given in full) | > 100 |  | > 100 | > 100 | > 100 | 31.1 |  | > 100 | > 100 |  |  |  |  |  |  |  |  |  |  |  |
| Nc1ccc(C2=N/C(=C\c3cccc(N)c3)C(=O)O2)cc1 | > 100 |  | > 100 |  | > 100 | > 100 |  | > 100 | > 100 |  |  |  |  |  |  |  |  |  |  |  |
| Cc1c(Cl)cccc1NC(=O)c1cccc([N+](=O)[O-])c1O | > 93.8 | 45.9 | 29.4 | 66.1 | 40.6 | > 78.1 | 40 | 51.4 | 36.9 |  |  |  |  |  |  |  |  |  |  |  |
| N#CC(C#N)=C1CCCOc2c1ccc1ccccc21 | > 100 | 4.89 | > 100 |  | > 100 | > 100 | > 100 | > 100 |  | > 100 | 1.84 | > 100 |  | > 100 | > 100 | > 100 | 88.2 | > 100 | > 100 |  |
| Cc1ccc(N2C(=O)N(c3ccc(C)cc3)C3(SC=NN3C)C2=O)cc1 (stereo not given) |  | > 100 | > 100 | > 100 | > 100 | > 100 | > 100 | > 100 |  |  |  |  |  |  |  |  |  |  |  |  |
| COc1ccc(-c2noc(N)c2-c2cc(OC)c3c(c2)OCO3)cc1 | > 82.2 | 7.55 | > 83.1 | 7.03 | 4.91 | > 100 | > 48.3 | 12.9 | 6.83 | 5.63 | 1.24 | 3.17 | 1.74 µM | 1.76 |  |  | 8.36 | 2.4 | 2.53 | 1.51 |
| CCOc1ccc(N=Cc2c3ccccc3nc3ccccc23)cc1 |  | > 100 | > 100 | > 100 | > 100 | > 100 |  | > 100 | > 100 |  |  |  |  |  |  |  |  |  |  |  |
| NC(=O)c1cn(Cc2ccccc2)c(=O)n1Cc1ccccc1 | > 100 | > 100 | > 100 | > 100 | > 100 | > 100 | > 100 | > 100 | > 100 |  |  |  |  |  |  |  |  |  |  |  |
| COc1ccc2nc3cc(Cl)ccc3c(Sc3ccc(NC(C)=O)cc3)c2c1 | > 45.7 | > 60.9 | > 33.5 | > 54.9 | 27.3 | > 20.1 | > 45.3 | > 22.8 | > 26.4 |  |  |  |  |  |  |  |  |  |  |  |
| NCCN.O=C([O-])[O-].O=C([O-])[O-].[Co+3].[K+] | > 100 | > 100 | > 100 | > 100 | > 100 | > 100 | > 100 | > 100 | > 100 | > 100 | > 100 | > 100 | > 100 µM and 72.3 µM | > 100 |  |  | > 100 | > 100 | > 100 | > 100 |
| COC(=O)c1c[nH]cc1CCCCc1c[nH]cc1C(=O)OC | > 100 | > 100 | > 100 |  | > 100 | > 100 | > 100 | > 100 | > 100 |  |  |  |  |  |  |  |  |  |  |  |
| CC12CCC(=O)N1c1cccnc1N2 (stereo not given) | > 100 | > 100 | > 100 | > 100 | > 100 | > 100 |  | > 100 | > 100 |  |  |  |  |  |  |  |  |  |  |  |
| CCc1nc(Cl)c(Cl)c(Cl)n1 | > 100 |  | > 100 | > 100 | > 100 | > 100 |  | > 100 | > 100 |  |  |  |  |  |  | > 100 |  |  |  |  |
